Experimental data as given in article PMC8351955, “Targeting Mycobacterium tuberculosis response to environmental cues for the development of effective antitubercular drugs” (PLoS Biology, 2021).
Where two headings read alike, the source gives them in different places.

Assays:
[1] = test system: CDC1551(rv2390c′::GFP) reporter Mtb strain, response to high [Cl−]; assay: microbe, parasite or virus in culture; type: cell-based, Mycobacterium tuberculosis; conditions: Mycobacterium tuberculosis, 144 h; for activity at 20 µM: read-out: rv2390c'::GFP validation assay NPA% at 20 µM compound
[2] = test system: CDC1551(rv1405c′::GFP) reporter Mtb strain; assay: microbe, parasite or virus in culture; type: cell-based, Mycobacterium tuberculosis; conditions: Mycobacterium tuberculosis; for activity at 10 µM: read-out: rv1405c'::GFP secondary assay NPA% at 10 µM compound; for activity at 20 µM: read-out: rv1405c'::GFP secondary assay NPA% at 20 µM compound
[3] = pH 6.4, […], DMSO positive control = 100%, read-out: Primary screen rv2390c'::GFP NPA%
[4] = 10 µM, pH 6.4, 250 mM NaCl, 6 days, read-out: rv2390c'::GFP validation assay NPA% at 10 µM compound

SMILES | activity at 10 µM [1, 3] [%] | activity at 10 µM [1, 4] [%] | activity at 20 µM ([1]; pH 6.4, 250 mM NaCl, 6 days) [%] | activity at 10 µM [2] [%] | activity at 20 µM [2] [%]
CC(C)Cc1cc(C(=O)N2CCOC(CCCc3ccccc3)C2)[nH]n1 (centres unmarked) [RU-0230474, CC(C)CC1=NNC(=C1)C(=O)N1CCOC(CCCC2=CC=CC=C2)C1] | 198 | 118 ± 12.7 | 229 ± 26.9 | 98.4 ± 7.5 | 172 ± 14.2
CCCn1ncc(C(=O)NC(C)C(=O)Nc2ccc(F)cc2C)c1C (centres unmarked) [RU-0232065, CCCN1N=CC(C(=O)NC(C)C(=O)NC2=CC=C(F)C=C2C)=C1C] | 154 | 119 ± 6.6 | 147 ± 14.2 | 91.3 ± 9.4 | 98.3 ± 13
NC(=O)c1cc2c(cc1-c1cccc(C(F)(F)F)c1)OCO2 [RU-0234167, NC(=O)C1=CC2=C(OCO2)C=C1C1=CC=CC(=C1)C(F)(F)F] | 343 | 221 ± 6.7 | 383 ± 10.4 | 201 ± 15 | 291 ± 18.7
CCCc1oncc1C(=O)NC1CC(=O)N(CCc2ccc(F)cc2)C1 (centres unmarked) [RU-0245406, CCCC1=C(C=NO1)C(=O)NC1CN(CCC2=CC=C(F)C=C2)C(=O)C1] | 172 | 126 ± 7.5 | 163 ± 6.6 | 87.7 ± 9 | 114 ± 25.7
Clc1cccc2ccc(CN3CCn4cncc4C3)nc12 [RU-0247165, ClC1=C2N=C(CN3CCN4C=NC=C4C3)C=CC2=CC=C1] | 219 | 132 ± 7.5 | 317 ± 6.7 | 226 ± 14.7 | 688.7 ± 3.5
COc1ccc(F)c(-c2cc3c(cc2C(N)=O)OCO3)c1 [RU-0251853, COC1=CC(=C(F)C=C1)C1=CC2=C(OCO2)C=C1C(N)=O] | 182 | 147 ± 6.1 | 276 ± 8 | 147 ± 32 | 296 ± 65.4
CCNC(=O)c1ccccc1OCc1nc(-c2ccc3c(c2)OCO3)no1 [RU-0257147, CCNC(=O)C1=C(OCC2=NC(=NO2)C2=CC3=C(OCO3)C=C2)C=CC=C1] | 154 | 92.6 ± 5.8 | 127 ± 7.2 | 82 ± 5.5 | 
O=C(c1nccc2ccccc12)N1CCN(CC2CCCC2)CC1 [RU-0257267, O=C(N1CCN(CC2CCCC2)CC1)C1=C2C=CC=CC2=CC=N1] | 199 | 140.3 ± 0.6 | 254 ± 8.7 | 267 ± 23 | 822 ± 58.1
CC(C)c1cc(C2CCN(C(=O)c3nc(C(C)C)cs3)CC2)[nH]n1 [RU-0259583, CC(C)C1=CSC(=N1)C(=O)N1CCC(CC1)C1=CC(=NN1)C(C)C] | 156 | 103 ± 2.6 | 130 ± 8.6 | 81.6 ± 6.6 | 99.6 ± 21.4
COc1ccc2c(CN3CCOCC(CN(C)C)C3)cn(C)c2c1 (centres unmarked) [RU-0260647, COC1=CC=C2C(CN3CCOCC(CN(C)C)C3)=CN(C)C2=C1] | 162 | 114 ± 3.2 | 130 ± 7.6 | 112 ± 2.5 | 130 ± 3.6
O=C(Cc1ccc2c(c1)CCC2)NCc1ccccc1F [RU-0268882, FC1=C(CNC(=O)CC2=CC3=C(CCC3)C=C2)C=CC=C1] | 175 | 130 ± 7 | 176 ± 16.5 | 103 ± 10.5 | 105 ± 20.7
Cc1ccc(NC(=O)[C@@H]2CCCN2S(=O)(=O)c2ccccc2F)cc1 [RU-0270461, CC1=CC=C(NC(=O)[C@@H]2CCCN2S(=O)(=O)C2=C(F)C=CC=C2)C=C1] | 151 | 116 ± 6.6 | 168 ± 4 | 98.1 ± 2.7 | 159 ± 7.6
